According to BindingDB's records for patent WO2025049746 (Eikon Therapeutics, 2025):

Legend:
[1] = target: Bifunctional 3'-5' exonuclease/ATP-dependent helicase WRN (Homo sapiens, UniProt Q14191); test: ADP-Glo Kinase Assay
Procedure: ATPase activity was measured using the ADP-Glo Kinase Assay following the manufacturers recommended protocol.

[2] = target: T1, Bifunctional 3'-5' exonuclease/ATP-dependent helicase WRN [480-1251] (UniProt Q14191); test: Biochemical Activity Assays
T1 construct: 480-1251
T1 sequence (Q14191 480-1251): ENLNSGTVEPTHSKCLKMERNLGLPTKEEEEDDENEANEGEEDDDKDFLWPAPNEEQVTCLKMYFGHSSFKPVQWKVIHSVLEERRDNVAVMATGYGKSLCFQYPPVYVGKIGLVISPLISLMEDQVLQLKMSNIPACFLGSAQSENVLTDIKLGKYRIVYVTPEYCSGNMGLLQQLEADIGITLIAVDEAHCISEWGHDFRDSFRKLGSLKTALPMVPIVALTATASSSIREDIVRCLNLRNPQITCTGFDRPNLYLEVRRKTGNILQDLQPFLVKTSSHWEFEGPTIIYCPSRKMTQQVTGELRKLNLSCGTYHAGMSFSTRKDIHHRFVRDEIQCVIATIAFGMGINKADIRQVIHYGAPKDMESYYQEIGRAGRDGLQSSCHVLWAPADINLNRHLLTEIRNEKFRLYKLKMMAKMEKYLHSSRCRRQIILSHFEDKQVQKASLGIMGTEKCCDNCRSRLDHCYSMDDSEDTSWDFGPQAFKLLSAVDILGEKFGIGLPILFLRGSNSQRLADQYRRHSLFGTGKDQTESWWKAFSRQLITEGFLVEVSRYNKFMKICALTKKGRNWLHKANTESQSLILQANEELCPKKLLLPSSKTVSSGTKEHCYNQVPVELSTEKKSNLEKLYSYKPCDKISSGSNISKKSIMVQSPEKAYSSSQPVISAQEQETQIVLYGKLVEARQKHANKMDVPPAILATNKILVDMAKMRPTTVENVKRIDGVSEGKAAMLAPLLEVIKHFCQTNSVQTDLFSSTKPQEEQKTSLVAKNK

Bifunctional 3'-5' exonuclease/ATP-dependent helicase WRN, sequence (Q14191 whole entry): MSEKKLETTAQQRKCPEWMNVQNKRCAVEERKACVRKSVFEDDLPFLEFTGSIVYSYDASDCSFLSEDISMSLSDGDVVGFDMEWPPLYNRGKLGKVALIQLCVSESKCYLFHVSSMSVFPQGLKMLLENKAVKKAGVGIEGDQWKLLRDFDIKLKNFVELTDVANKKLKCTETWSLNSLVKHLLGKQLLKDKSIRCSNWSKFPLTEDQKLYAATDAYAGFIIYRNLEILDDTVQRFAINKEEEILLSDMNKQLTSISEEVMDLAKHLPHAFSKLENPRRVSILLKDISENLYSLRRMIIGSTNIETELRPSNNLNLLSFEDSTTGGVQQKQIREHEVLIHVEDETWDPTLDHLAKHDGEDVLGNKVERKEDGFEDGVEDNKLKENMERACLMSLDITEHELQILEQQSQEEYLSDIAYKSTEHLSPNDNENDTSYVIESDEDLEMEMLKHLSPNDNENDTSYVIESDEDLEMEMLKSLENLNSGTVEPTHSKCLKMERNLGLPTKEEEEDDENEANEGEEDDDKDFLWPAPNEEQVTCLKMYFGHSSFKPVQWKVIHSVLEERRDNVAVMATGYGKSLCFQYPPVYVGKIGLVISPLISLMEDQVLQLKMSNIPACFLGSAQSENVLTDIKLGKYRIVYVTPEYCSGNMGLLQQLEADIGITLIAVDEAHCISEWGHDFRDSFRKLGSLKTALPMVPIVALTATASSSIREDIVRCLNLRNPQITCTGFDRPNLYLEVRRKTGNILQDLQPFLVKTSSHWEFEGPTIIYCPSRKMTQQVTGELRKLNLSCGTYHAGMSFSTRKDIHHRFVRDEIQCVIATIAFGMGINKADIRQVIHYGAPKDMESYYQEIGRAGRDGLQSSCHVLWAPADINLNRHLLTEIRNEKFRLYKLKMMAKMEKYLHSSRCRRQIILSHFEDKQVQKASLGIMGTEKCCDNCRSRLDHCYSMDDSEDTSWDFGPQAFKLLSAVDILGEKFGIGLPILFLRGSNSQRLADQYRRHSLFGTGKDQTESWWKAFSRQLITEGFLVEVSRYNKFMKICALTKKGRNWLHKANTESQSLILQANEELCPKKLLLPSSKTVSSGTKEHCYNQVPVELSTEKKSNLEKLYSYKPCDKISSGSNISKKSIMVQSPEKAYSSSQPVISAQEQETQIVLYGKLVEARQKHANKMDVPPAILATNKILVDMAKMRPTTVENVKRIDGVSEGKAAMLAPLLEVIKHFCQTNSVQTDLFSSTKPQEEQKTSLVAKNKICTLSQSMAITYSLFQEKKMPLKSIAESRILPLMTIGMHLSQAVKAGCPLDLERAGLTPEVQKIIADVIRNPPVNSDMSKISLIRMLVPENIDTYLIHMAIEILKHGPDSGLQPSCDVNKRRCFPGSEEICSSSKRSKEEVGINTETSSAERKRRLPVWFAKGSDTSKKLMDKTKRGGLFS

Row | Compound | IC50 [1] | IC50 [2]
1 | CCc1c(N2CCN(C(=O)c3ncnc(C)c3O)CC2)c(=O)n2nc(-c3ccc4c(c3F)CCO4)nc2n1CC(=O)Nc1ccc(C(F)(F)F)cc1Cl [WO2025049746, Example 180] | 53 nM | 45 nM
2 | CCc1c(N2CCN(C(=O)C3=CCOCC3)CC2)c(=O)n2nc(-c3ccnc(O)n3)nc2n1CC(=O)Nc1ccc(C(F)(F)F)cc1Cl [WO2025049746, Example 430] | 550 nM | 373 nM
3 | CCc1c(N2CCN(C(=O)c3ncnc(C)c3O)CC2)c(=O)n2nc(-c3ccc4c(c3)CCOC4)nc2n1CC(=O)Nc1ccc(Cl)c(OC(F)F)c1Cl [WO2025049746, Example 406] | 46 nM | 36 nM
4 | CCc1c(N2CCN(C(=O)c3ncnc(C)c3O)CC2)c(=O)n2nc(C3=CCOCC3)nc2n1CC(=O)Nc1ccc(SC(F)(F)F)cc1 [WO2025049746, Example 356] | 875 nM | 634 nM
5 | CCc1c(N2CCN(C(=O)c3nc4c(cc3O)COCC4)CC2)c(=O)n2nc(-c3ccc4c(c3)COC4)nc2n1CC(=O)Nc1ccc(C(F)(F)F)cc1Cl [WO2025049746, Example 440] | 46 nM | 48 nM
6 | CCc1c(N2CCN(C(=O)c3ncnc(C)c3O)CC2)c(=O)n2nc(C3=CCOCC3)nc2n1CC(=O)NC12CCC(C(F)(F)F)(CC1)C2 [WO2025049746, Example 362] | 1650 nM | 615 nM
7 | CCc1c(N2CCN(C(=O)C(C)O)CC2)c(=O)n2nc(C3=CCOCC3)nc2n1CC(=O)Nc1ccc(C(F)(F)F)cc1Cl (stereo unspecified) [WO2025049746, Example 54] | 182 nM | 46.1 nM
8 | CCc1c(N2CCN(C(=O)c3ncnc(C)c3O)CC2)c(=O)n2nc(-c3cnc4nc(C)oc4c3)nc2n1CC(=O)Nc1ccc(C(F)(F)F)cc1Cl [WO2025049746, Example 282] | 47 nM | 53 nM
9 | Cc1ncnc(C(=O)N2CCN(c3c4n(c5nc(-c6ccc7c(c6)COC7(C)C)nn5c3=O)[C@H](C(=O)Nc3ccc(C(F)(F)F)cc3Cl)C[C@H]4C)[C@H]3CC[C@@H]32)c1O [WO2025049746, Example 467] | > 29700 nM | 9570 nM
10 | CCc1c(N2CCN(C(=O)c3ncnc(C)c3O)CC2)c(=O)n2nc(-c3ccc4c(c3)N(C)C(=O)CO4)nc2n1CC(=O)Nc1ccc(C(F)(F)F)cc1Cl [WO2025049746, Example 198] | 48 nM | 33 nM
11 | CCc1c(N2CCN(C(=O)c3ncnc(C)c3O)CC2)c(=O)n2nc(-c3ccc4c(c3)OCO4)nc2n1CC(=O)Nc1c(Cl)cc(C(F)(F)F)c2c1CC2 [WO2025049746, Example 380] | 61 nM | 44 nM
12 | CCc1c(N2CCN(C(=O)c3nc4c(cc3O)OCC4)CC2)c(=O)n2nc(-c3ccc4c(c3)COC4)nc2n1CC(=O)Nc1ccc(C(F)(F)F)cc1Cl [WO2025049746, Example 435] | 61 nM | 50 nM
13 | CCc1c(N2CCN(C(=O)c3ncnc(C)c3O)CC2)c(=O)n2nc(-c3ccc4c(c3)CC(C)(C)N4C)nc2n1CC(=O)Nc1ccc(C(F)(F)F)cc1Cl [WO2025049746, Example 316] | 57 nM | 68 nM
14 | CCc1c(N2CCN(C(=O)c3ncnc(C)c3O)CC2)c(=O)n2nc(-c3ccc4c(c3)CO[C@@H]4C(F)(F)F)nc2n1CC(=O)Nc1ccc(C(F)(F)F)cc1Cl [WO2025049746, Example 276] | 72 nM | 85 nM
15 | CCc1c(N2CCN(C(=O)C(F)(F)C3(O)CCC3)CC2)c(=O)n2nc(C3=CCOCC3)nc2n1CC(=O)Nc1ccc(C(F)(F)F)cc1Cl [WO2025049746, Example 57] | 827 nM | 486 nM
16 | CCc1c(N2CCN(C(=O)C3CCCC3O)CC2)c(=O)n2nc(C3=CCOCC3)nc2n1CC(=O)Nc1ccc(C(F)(F)F)cc1Cl (stereo unspecified) [WO2025049746, Example 58] | 1260 nM | 187 nM
17 | CCc1c(N2CCN(C(=O)c3ncnc(C)c3O)CC2)c(=O)n2nc(-c3cc(C(F)(F)F)c4ncccc4c3)nc2n1CC(=O)Nc1ccc(C(F)(F)F)cc1Cl [WO2025049746, Example 322] | 72 nM | 96 nM
18 | CCc1c(N2CCN(C(=O)c3ncnc(C)c3O)CC2)c(=O)n2nc(C3=CCOCC3)nc2n1CC(=O)Nc1ccc(OC(F)F)cc1Cl [WO2025049746, Example 370] | 163 nM | 161 nM
19 | CCc1c(N2CCN(C(=O)C(F)(F)CO)CC2)c(=O)n2nc(C3=CCOCC3)nc2n1CC(=O)Nc1ccc(C(F)(F)F)cc1Cl [WO2025049746, Example 56] | 737 nM | 139 nM
20 | CCc1c(N2CCN(C(=O)c3ncnc(C)c3O)CC2)c(=O)n2nc(-c3ccn4ncnc4c3)nc2n1CC(=O)Nc1ccc(C(F)(F)F)cc1Cl [WO2025049746, Example 220] | 111 nM | 96 nM
21 | CCc1c(N2CCN(C(=O)c3ncnc(C)c3O)CC2)c(=O)n2nc(-c3cccc4c3OCC4)nc2n1CC(=O)Nc1ccc(C(F)(F)F)cc1Cl [WO2025049746, Example 158] | 71 nM | 49 nM

More lines, in order of falling IC50 [1], values ahead:

Row | IC50 [1] | IC50 [2] | Compound
22 | 45 nM | 50 nM | CCc1c(N2CC[C@@H](C)N(C(=O)c3ncnc(C)c3O)CC2)c(=O)n2nc(-c3ccc4c(c3)COC4(C)C)nc2n1CC(=O)Nc1ccc(C(F)(F)F)cc1Cl [WO2025049746, Example 461]
23 | 44 nM | 34 nM | CCc1c(N2CCN(C(=O)c3ncnc(C)c3O)CC2)c(=O)n2nc(-c3ccn4c(C)ncc4c3)nc2n1CC(=O)Nc1ccc(C(F)(F)F)cc1Cl [WO2025049746, Example 218]
24 | 42 nM | 53 nM | CCc1c(N2CCN(C(=O)c3ncnc(C)c3O)CC2)c(=O)n2nc(-c3cnc4[nH]cc(Cl)c4c3)nc2n1CC(=O)Nc1ccc(C(F)(F)F)cc1Cl [WO2025049746, Example 328]
25 | 41 nM | 32 nM | CCc1c(N2CCN(C(=O)c3ncnc(C)c3O)CC2)c(=O)n2nc(N(C)C)nc2n1CC(=O)Nc1c(Cl)cc(C(F)(F)F)c2c1CC2 [WO2025049746, Example 387]
26 | 40 nM | 32 nM | CCc1c(N2CCN(C(=O)c3ncnc(C)c3O)CC2)c(=O)n2nc(-c3cc(F)c4c(c3)COC4)nc2n1CC(=O)Nc1ccc(C(F)(F)F)cc1Cl [WO2025049746, Example 202]
27 | 39 nM | 45 nM | CCc1c(N2CCN(C(=O)c3ncnc(C)c3O)CC2)c(=O)n2nc(-c3ccc4c(c3)C[C@H](C)O4)nc2n1CC(=O)Nc1ccc(C(F)(F)F)cc1Cl [WO2025049746, Example 230]
28 | 36 nM | 27 nM | CCc1c(N2CCN(C(=O)c3ncnc(C)c3O)CC2)c(=O)n2nc(N3CCC(=C(F)F)CC3)nc2n1CC(=O)Nc1ccc(C(F)(F)F)cc1Cl [WO2025049746, Example 205]
29 | 36 nM | 30 nM | CCc1c(N2CCN(C(=O)c3ncnc(C)c3O)CC2)c(=O)n2nc(C3=CCOCC3)nc2n1CC(=O)Nc1ccc(C(F)(F)F)c2scnc12 [WO2025049746, Example 368]
30 | 36 nM | 30 nM | CCc1c(N2CCN(C(=O)c3ncnc(C)c3O)CC2)c(=O)n2nc(C3=CCOCC3)nc2n1CC(=O)Nc1ccc(SC(F)(F)F)cc1Cl [WO2025049746, Example 364]
31 | 35.4 nM | 39.4 nM | CCc1c(N2CCN(C(=O)c3nc4n(c(=O)c3O)CCOC4)CC2)c(=O)n2nc(-c3ccc4c(c3)COC4(C)C)nc2n1CC(=O)Nc1ccc(C(F)(F)F)cc1Cl [WO2025049746, Example 462]
32 | 35.1 nM | 28.2 nM | CCc1c(N2CCN(C(=O)c3ccccc3NS(=O)(=O)C3CC3)CC2)c(=O)n2nc(N(C)C)nc2n1CC(=O)Nc1ccc(C(F)(F)F)cc1Cl [WO2025049746, Example 85]
33 | 34 nM | 33 nM | CCc1c(N2CCN(C(=O)c3ncnc(C)c3O)CC2)c(=O)n2nc(-c3ccc4nc(N5CCOCC5)oc4c3)nc2n1CC(=O)Nc1ccc(C(F)(F)F)cc1Cl [WO2025049746, Example 315]
34 | 32 nM | 33 nM | CCc1c(N2CCN(C(=O)c3ncnc(C)c3O)CC2)c(=O)n2nc(-c3ccc4c(c3)nnn4C)nc2n1CC(=O)Nc1ccc(C(F)(F)F)cc1Cl [WO2025049746, Example 314]
35 | 29.1 nM | 31.9 nM | Cc1ncnc(C(=O)N2CCN(c3c4n(c5nc(-c6ccc7c(c6)COC7(C)C)nn5c3=O)[C@@H](C(=O)Nc3ccc(C(F)(F)F)cc3Cl)C[C@H]4C)[C@H]3CC[C@@H]32)c1O [WO2025049746, Example 465]
36 | 28 nM | 31 nM | CCc1c(N2CCN(C(=O)c3ncnc(C)c3O)CC2)c(=O)n2nc(-c3ccc4nccnc4c3)nc2n1CC(=O)Nc1ccc(C(F)(F)F)cc1Cl [WO2025049746, Example 280]
37 | 28 nM | 29 nM | CCc1c(N2CCN(C(=O)c3ncnc(C)c3O)CC2)c(=O)n2nc(-c3cc(F)c4nn(C)cc4c3)nc2n1CC(=O)Nc1ccc(C(F)(F)F)cc1Cl [WO2025049746, Example 287]
38 | 25 nM | 26 nM | CCc1c(N2CCN(C(=O)c3ncnc(C)c3O)CC2)c(=O)n2nc(-c3ccc4nc(N)oc4c3)nc2n1CC(=O)Nc1ccc(C(F)(F)F)cc1Cl [WO2025049746, Example 284]
39 | 23.6 nM | 20.7 nM | CCc1c(N2CCN(C(=O)c3ncnc(C)c3O)CC2)c(=O)n2nc(-c3ccc4c(c3)OCCO4)nc2n1CC(=O)Nc1ccc(C(F)(F)F)cc1Cl [WO2025049746, Example 1]
40 | 21.5 nM | 21.3 nM | CCc1c(N2CCN(C(=O)c3nc4n(c(=O)c3O)CCOC4)CC2)c(=O)n2nc(-c3ccc4c(c3)OCO4)nc2n1CC(=O)Nc1ccc(C(F)(F)F)cc1Cl [WO2025049746, Example 86]
41 | 20 nM | 26 nM | CCc1c(N2CCN(C(=O)c3ncnc(C)c3O)CC2)c(=O)n2nc(-c3ccc(NC(=O)NC)cc3)nc2n1CC(=O)Nc1ccc(C(F)(F)F)cc1Cl [WO2025049746, Example 331]
42 | 19 nM | 22 nM | CCc1c(N2CCN(C(=O)c3ncnc(C)c3O)CC2)c(=O)n2nc(-c3cc(F)c4ncccc4c3F)nc2n1CC(=O)Nc1ccc(C(F)(F)F)cc1Cl [WO2025049746, Example 320]
43 | 14.6 nM | 12.2 nM | CCc1c(N2CCN(C(=O)c3ncnc(C)c3O)CC2)c(=O)n2nc(C3=CCOCC3)nc2n1CC(=O)Nc1ccc(OC(F)(F)Cl)cc1 [WO2025049746, Example 72]
